# In patent US6737383B1, “Herbicidal oxadiazolidines” (priority 1999, dated 2004):
# How the values were obtained:
# cocklebur = assay: Test B pre/postemergence cocklebur; type: in vivo, Xanthium strumarium
# How it was run: (§1)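 Herbicidal effect was estimated by eye on a ten-point control scale after plants spent twelve to sixteen days in a greenhouse following soil or foliar treatment. Foliar sprays targeted plants at one to four leaves; all doses were formulated in a non-phytotoxic solvent with surfactant.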
# velvetleaf = assay: Test B pre/postemergence velvetleaf; type: in vivo, Abutilon theophrasti
# How it was run: as §1
# duck salad = assay: Test B flood test duck salad; type: in vivo, Heteranthera limosa
# How it was run: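 Each value is a visual injury score relative to controls, with 10 meaning complete control and 0 no effect. Evaluation took place twelve to sixteen days after the 2-leaf-stage plants were treated and kept in the greenhouse.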
# winter wheat [1] = assay: Test E winter wheat; type: in vivo, Triticum aestivum; conditions: Postemergence; for Plant response rating, Wheat (winter): 0 to 100 scale
# How it was run: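 For postemergence, plants at the 1- to 4-leaf stage, in a 60:40 mix of sandy loam and potting mix, treated with compound formulated in a surfactant-containing non-phytotoxic solvent. Visual assessment versus untreated controls followed roughly 21–28 days in the greenhouse.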
# soybean = assay: Test B pre/postemergence soybean; type: in vivo, Glycine max
# How it was run: as §1
# common pursiane = assay: Test D common purslane; type: in vivo, Portulaca oleracea
# How it was run: (§2)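 Scoring used a 0–100 visual injury scale, with 0 meaning no effect and 100 complete control, assessed 14–21 days after application alongside untreated pots. Preemergence treatments went onto sandy loam surfaces of separately potted seeds within a day of sowing.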
# bermuda-grass = assay: Test D bermudagrass; type: in vivo, Cynodon dactylon; conditions: Preemergence, 0 to 100 scale
# How it was run: as §2
# green foxtail = assay: Test E green foxtail; type: in vivo, Setaria viridis; conditions: Preemergence
# Italian ryegrass = assay: Test E Italian ryegrass; type: in vivo, Lolium multiflorum; conditions: Preemergence
# blackgrass = assay: Test E blackgrass; type: in vivo, Alopecurus myosuroides; conditions: Preemergence
# guineagrass = assay: Test D guineagrass; type: in vivo, Panicum maximum; conditions: Preemergence, 0 to 100 scale
# How it was run: as §2
# winter wheat [2] = assay: Test E winter wheat; type: in vivo, Triticum aestivum; conditions: Preemergence
# winter barley = assay: Test E winter barley; type: in vivo, Hordeum vulgare; conditions: Preemergence
# wild oat = assay: Test E wild oat; type: in vivo, Avena fatua; conditions: Preemergence
# tall mallow = assay: Test D tall mallow; type: in vivo, Malva sylvestris; conditions: Preemergence, 0 to 100 scale
# How it was run: as §2
# pitted morningglory = assay: Test D pitted morningglory; type: in vivo, Ipomoea lacunosa; conditions: Preemergence, 0 to 100 scale
# How it was run: as §2
# [3] = Postemergence, Rate 125 g/ha, scale of 0 to 10 where 0 is no effect and 10 is complete control
# [4] = Preemergence, Rate 62 g/ha, scale 0 to 10 (0 no effect, 10 complete control)
# [5] = Preemergence, Rate 125 g/ha, 0 is no effect, 10 is complete control
# [6] = Preemergence, Rate 250 g/ha, scale 0 to 10, 0 is no effect, 10 is complete control
# [7] = Preemergence, Rate 500 g/ha, scale 0 to 10 (0 no effect, 10 complete control)
# [8] = Rate 62 g/ha, Postemergence, scale of 0 to 10 where 0 is no effect and 10 is complete control
# [9] = Rate 250 g/ha, Postemergence, scale 0 to 10, 0 is no effect, 10 is complete control
# [10] = Rate 500 g/ha, Postemergence, scale 0 to 10
# [11] = Rate 16 g/ha, 0 no injury, 100 complete control
# [12] = Rate 32 g/ha, 0 no injury, 100 complete control
# [13] = Rate 64 g/ha, 0 no injury, 100 complete control
# [14] = Rate 125 g/ha, 0 no injury, 100 complete control
# [15] = Rate 62 g/ha, 0 to 100 scale, 0 no effect, 100 complete control
# [16] = Rate 125 g/ha, 0 to 100 scale (0 no effect, 100 complete control)
# [17] = Rate 500 g/ha, 0 to 100 scale where 0 is no effect and 100 is complete control
smiles,measurement,setting,value
CC(C)N(C(=O)n1oc(=O)n(C(C)C)c1=O)c1ccc(F)cc1 [Compound 131],Cocklebur plant response rating,cocklebur; [3],3
same,Cocklebur plant response rating,cocklebur; [4],0
same,Cocklebur plant response rating (0 to 10 scale),cocklebur; [5],0
same,Cocklebur plant response rating,cocklebur; [6],2
same,Cocklebur plant response rating,cocklebur; [7],2
same,Cocklebur plant response rating,cocklebur; [8],2
same,"Plant response rating, Cocklebur",cocklebur; [9],5
same,Cocklebur plant response rating,cocklebur; [10],5
same,Velvetleaf plant response rating,velvetleaf; [3],7
same,Velvetleaf plant response rating,velvetleaf; [4],7
same,Velvetleaf plant response rating (0 to 10 scale),velvetleaf; [5],8
same,Velvetleaf plant response rating,velvetleaf; [6],9
same,Velvetleaf plant response rating,velvetleaf; [7],10
same,Velvetleaf plant response rating,velvetleaf; [8],0
same,"Plant response rating, Velvetleaf",velvetleaf; [9],8
same,Velvetleaf plant response rating,velvetleaf; [10],8
same,Ducksalad plant response rating,"duck salad; Rate 62 g/ha, headed Pre-emergence (flood test species), scale 0 to 10 (0 no effect, 10 complete control)",0
same,Ducksalad plant response rating,"duck salad; Rate 125 g/ha, Pre-emergence, flood test species, scale 0 to 10 where 0 is no effect and 10 is complete control",0
same,Ducksalad plant response rating,"duck salad; Rate 250 g/ha, headed Pre-emergence (flood test species), scale 0 to 10 (0 no effect, 10 complete control)",7
same,"Plant response rating, Ducksalad","duck salad; Rate 500 g/ha, headed Pre-emergence (flood test species), scale 0 to 10 (0 no effect, 10 complete control)",9
same,"Plant response rating, Wheat (winter)",winter wheat [1]; Rate 62 g/ha,50
same,"Plant response rating, Wheat (winter)",winter wheat [1]; Rate 125 g/ha,60
same,"Plant response rating, Wheat (winter)","winter wheat [1]; Rate 500 g/ha, 0 no effect, 100 complete control",20
same,Wheat (winter) plant response rating,"winter wheat [1]; Rate 250 g/ha, 0 to 100 scale where 0 is no effect and 100 is complete control",0
same,Soybean plant response rating,soybean; [3],7
same,Soybean plant response rating,soybean; [4],2
same,Soybean plant response rating (0 to 10 scale),soybean; [5],3
same,Soybean plant response rating,soybean; [6],8
same,Soybean plant response rating,soybean; [7],8
same,Soybean plant response rating,soybean; [8],5
same,"Plant response rating, Soybean",soybean; [9],8
same,Soybean plant response rating,soybean; [10],8
same,"Plant response rating, C. purslane","common pursiane; Rate 16 g/ha; Preemergence; 0 to 100 scale, 0 no injury, 100 complete control",0
same,"Plant response rating, C. purslane","common pursiane; Rate 32 g/ha; Preemergence; 0 to 100 scale, 0 no injury, 100 complete control",0
same,"Plant response rating, C. purslane","common pursiane; Rate 64 g/ha, Preemergence; 0 to 100 scale, 0 no injury, 100 complete control",0
same,"Plant response rating, C. purslane","common pursiane; Rate 125 g/ha, Preemergence; 0 to 100 scale, 0 no injury, 100 complete control",0
same,"Plant response rating, C. purslane",common pursiane; Rate 250 g/ha; Preemergence; 0 to 100 scale,10
same,"Plant response rating, C. purslane","common pursiane; Rate 500 g/ha, Preemergence; 0 to 100 scale",100
same,"Plant response rating, C. purslane",common pursiane; Rate 500 g/ha; Preemergence; 0 to 100 scale,10
same,"Plant response rating, Bermudagrass",bermuda-grass; [11],100
same,"Plant response rating, Bermudagrass",bermuda-grass; [12],100
same,"Plant response rating, Bermudagrass",bermuda-grass; [13],100
same,"Plant response rating, Bermudagrass",bermuda-grass; [14],100
same,"Plant response rating, Bermudagrass",bermuda-grass; Rate 250 g/ha,100
same,"Plant response rating, Bermudagrass",bermuda-grass; Rate 500 g/ha,100
same,"Plant response rating, Green foxtail",green foxtail; [15],60
same,"Plant response rating, Green foxtail",green foxtail; [16],100
same,Green foxtail plant response rating (0 to 100 scale),green foxtail; Rate 250 g/ha,100
same,"Plant response rating, I. Ryegrass",Italian ryegrass; [15],70
same,"Plant response rating, I. Ryegrass",Italian ryegrass; [16],100
same,I. Ryegrass plant response rating (0 to 100 scale),Italian ryegrass; Rate 250 g/ha,100
same,"Plant response rating, I. Ryegrass",Italian ryegrass; [17],100
same,"Plant response rating, Blackgrass",blackgrass; [15],60
same,"Plant response rating, Blackgrass",blackgrass; [16],50
same,Blackgrass plant response rating (0 to 100 scale),blackgrass; Rate 250 g/ha,60
same,"Plant response rating, Blackgrass",blackgrass; [17],100
same,"Plant response rating, Guineagrass",guineagrass; [11],0
same,"Plant response rating, Guineagrass",guineagrass; [12],100
same,"Plant response rating, Guineagrass",guineagrass; [13],100
same,"Plant response rating, Guineagrass",guineagrass; [14],100
same,"Plant response rating, Guineagrass",guineagrass; Rate 250 g/ha,100
same,"Plant response rating, Guineagrass",guineagrass; Rate 500 g/ha,100
same,"Plant response rating, Wheat (winter)",winter wheat [2]; [15],50
same,"Plant response rating, Wheat (winter)",winter wheat [2]; [16],35
same,Wheat (winter) plant response rating (0 to 100 scale),winter wheat [2]; Rate 250 g/ha,60
same,"Plant response rating, Wheat (winter)",winter wheat [2]; [17],95
same,"Plant response rating, Barley (winter)",winter barley; [15],40
same,"Plant response rating, Barley (winter)",winter barley; [16],65
same,Barley (winter) plant response rating (0 to 100 scale),winter barley; Rate 250 g/ha,100
same,"Plant response rating, Barley (winter)",winter barley; [17],100
same,"Plant response rating, Wild oat",wild oat; [15],50
same,"Plant response rating, Wild oat",wild oat; [16],50
same,Wild oat plant response rating (0 to 100 scale),wild oat; Rate 250 g/ha,60
same,"Plant response rating, Wild oat",wild oat; [17],100
same,"Plant response rating, Tall Mallow",tall mallow; [11],30
same,"Plant response rating, Tall Mallow",tall mallow; [12],30
same,Tall Mallow plant response rating,tall mallow; [13],80
same,Tall Mallow plant response rating,tall mallow; [14],80
same,"Plant response rating, Tall Mallow",tall mallow; Rate 250 g/ha,90
same,"Plant response rating, Tall Mallow",tall mallow; Rate 500 g/ha,100
same,"Plant response rating, P. morninglory",pitted morningglory; [11],0
same,"Plant response rating, P. morninglory",pitted morningglory; [12],0
same,"Plant response rating, P. morninglory",pitted morningglory; [13],0
same,"Plant response rating, P. morninglory",pitted morningglory; [14],50
same,"Plant response rating, P. morninglory",pitted morningglory; Rate 250 g/ha,85
same,"Plant response rating, P. morninglory",pitted morningglory; Rate 500 g/ha,100
